Columns and labels:
human GPR84 [1] = biological target: T1, human GPR84 (Homo sapiens, UniProt Q9NQS5); assay: cell-based; type: cell-based; settings: for percent receptor activation at 10 μM, cAMP assay: compound 10 μM; for percent receptor activation at 10 μM, cAMP assay / EC50: forskolin 10 μM; for EC50: CHO cells expressing human GPR84; for Emax: read-out: efficacy (Emax), cAMP assay
Target sequence in this assay (Q9NQS5 whole entry): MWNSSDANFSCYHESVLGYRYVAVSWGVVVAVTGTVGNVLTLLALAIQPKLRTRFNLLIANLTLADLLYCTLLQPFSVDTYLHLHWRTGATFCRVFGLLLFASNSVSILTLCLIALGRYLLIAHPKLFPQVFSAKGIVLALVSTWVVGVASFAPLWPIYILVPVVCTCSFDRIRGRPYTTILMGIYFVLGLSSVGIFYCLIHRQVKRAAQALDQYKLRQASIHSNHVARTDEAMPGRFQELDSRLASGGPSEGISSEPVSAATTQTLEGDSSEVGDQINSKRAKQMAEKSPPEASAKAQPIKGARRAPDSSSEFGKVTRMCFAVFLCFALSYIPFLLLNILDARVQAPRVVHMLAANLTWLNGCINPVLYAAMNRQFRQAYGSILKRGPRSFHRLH

[2] = metabolic stability in human liver microsomes; type: in vitro ADME; settings: human microsomes, 30 min
human GPR84 [3] = biological target: T1, human GPR84; assay: cell-based; settings: EC50 ± SEM, β-arrestin assay, CHO cells expressing human GPR84
Target sequence in this assay (Q9NQS5 whole entry): as above
Target sequence in this assay (P32121 whole entry partner): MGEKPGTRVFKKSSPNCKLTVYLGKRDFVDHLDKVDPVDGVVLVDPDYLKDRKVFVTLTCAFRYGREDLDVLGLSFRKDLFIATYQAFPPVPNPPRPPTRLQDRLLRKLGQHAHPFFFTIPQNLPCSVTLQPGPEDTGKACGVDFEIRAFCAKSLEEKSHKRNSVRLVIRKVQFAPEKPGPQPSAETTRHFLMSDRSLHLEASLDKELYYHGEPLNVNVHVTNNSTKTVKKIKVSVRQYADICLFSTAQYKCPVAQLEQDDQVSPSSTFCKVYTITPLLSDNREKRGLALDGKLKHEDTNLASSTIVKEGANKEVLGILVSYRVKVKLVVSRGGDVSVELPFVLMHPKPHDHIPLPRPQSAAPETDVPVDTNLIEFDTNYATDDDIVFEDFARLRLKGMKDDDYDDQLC

| Structure (SMILES) | percent receptor activation at 10 μM, cAMP assay (human GPR84 [1]) [%] | EC50 (human GPR84 [1]; EC50 ± SEM, cAMP assay) [nM] | Emax (human GPR84 [1]) [%] | other results |
| --- | --- | --- | --- | --- |
| CCCCC(CC)CNc1cc(=O)[nH]c(=O)[nH]1 (racemic) [Compound 24, N^6-(R,S)-(2-ethyl)hexyluracil] | 14 | – | – | agonistic activity at GPR84 in cAMP assay, in words (human GPR84 [1]): abolished activity |
| CCCCCCSc1nc(O)cc(O)n1 [2-hexylthiopyrimidine-4,6-diol (5), 2-hexylthiopyrimidine-4,6-diol, reference compound] | – | – | – | drug disappeared after 30 min of incubation [2]: ~40% |
| CCNc1cc(=O)[nH]c(=O)[nH]1 [Compound 13] | 15 | – | – | agonistic activity at GPR84 in cAMP assay, in words (human GPR84 [1]): inactive |
| CCCNc1cc(=O)[nH]c(=O)[nH]1 [Compound 14] | −9 | – | – | agonistic activity at GPR84 in cAMP assay, in words (human GPR84 [1]): inactive |
| CC(C)CNc1cc(=O)[nH]c(=O)[nH]1 [Compound 15] | 11 | – | – | – |
| CC(C)(C)CNc1cc(=O)[nH]c(=O)[nH]1 [Compound 16] | 4 | – | – | – |
| CC(C)CCNc1cc(=O)[nH]c(=O)[nH]1 [Compound 17] | 14 | – | – | – |
| CC(C)(C)CCNc1cc(=O)[nH]c(=O)[nH]1 [Compound 18] | 18 | – | – | – |
| CCCCCNc1cc(=O)[nH]c(=O)[nH]1 [Compound 19, 6-Pentylamino-2,4(1H,3H)-pyrimidinedione] | – | 460 ± 130 | 106 | EC50 (human GPR84 [3]): 4800 ± 1300 nM |
| CCCCCCCNc1cc(=O)[nH]c(=O)[nH]1 [Compound 21, 6-Heptylamino-2,4(1H,3H)-pyrimidinedione] | – | 12 ± 6 | 113 | – |
| CCCCCCCCCCNc1cc(=O)[nH]c(=O)[nH]1 [Compound 23, 6-Decylamino-2,4(1H,3H)-pyrimidinedione] | – | – | 109 | – |
| CC(C)CCCCCNc1cc(=O)[nH]c(=O)[nH]1 [Compound 25] | – | 5900 ± 2600 | 99 | – |
| CSCCCNc1cc(=O)[nH]c(=O)[nH]1 [Compound 26, N^6-Methylthiopropyluracil] | – | 23000 ± 3000 | 100 | – |
| O=c1cc(NCCCCCCO)[nH]c(=O)[nH]1 [Compound 27] | 51 ± 8 | – | – | – |
| O=c1cc(NCCCCCCCO)[nH]c(=O)[nH]1 [Compound 28, 6-(7-Hydroxyheptylamino)-2,4(1H,3H)-pyrimidinedione] | – | – | 105 | EC50 (human GPR84 [3]): 2100 ± 600 nM; EC50 (human GPR84 [1]; EC50, cAMP assay): 1980 nM |
| O=C(O)CCCCCNc1cc(=O)[nH]c(=O)[nH]1 [Compound 29] | 25 | – | – | – |
| O=C(O)CCCCCCCNc1cc(=O)[nH]c(=O)[nH]1 [Compound 30] | 13 | – | – | – |
| CCCCCCCCCNc1cc(=O)n(C)c(=O)[nH]1 [Compound 32, 6-Nonylamino-3-methyl-2,4(1H,3H)-pyrimidinedione] | – | 2000 ± 500 | 74 | – |
| CCCCCCNc1cc(=O)[nH]c(=O)n1C [Compound 34] | 32 | – | – | – |
| CCCCCCCCNc1cc(=O)[nH]c(=O)n1C [Compound 35] | 34 | – | – | – |
| CCCCCCCCNc1cc(=O)n(C)c(=O)n1C [Compound 36] | 25 | – | – | agonistic activity at GPR84 in cAMP assay, in words (human GPR84 [1]): virtually abolished potency |
| CCCCCCN(C)c1cc(=O)[nH]c(=O)[nH]1 [Compound 37, 6-(N-Methylhexylamino)-2,4(1H,3H)-pyrimidinedione] | – | 110 ± 40 | 106 | – |
| CCCCCCCCN(C)c1cc(=O)[nH]c(=O)[nH]1 [Compound 38, 6-(N-Methyloctylamino)-2,4(1H,3H)-pyrimidinedione] | – | – | 107 | EC50 (human GPR84 [3]): 640 ± 20 nM |
| CCCCCCCCNc1c[nH]c(=O)[nH]c1=O [Compound 39] | 6 | – | – | agonistic activity at GPR84 in cAMP assay, in words (human GPR84 [1]): completely inactive |
| O=c1cc(NCc2ccccc2)[nH]c(=O)[nH]1 [Compound 40] | 12 | – | – | agonistic activity at GPR84 in cAMP assay, in words (human GPR84 [1]): inactive |
| O=c1cc(NCc2cccc3ccccc23)[nH]c(=O)[nH]1 [Compound 41] | 23 | – | – | agonistic activity at GPR84 in cAMP assay, in words (human GPR84 [1]): inactive |
| O=c1cc(NCCCc2ccccc2)[nH]c(=O)[nH]1 [Compound 43, 6-(3-Phenylpropylamino)-2,4(1H,3H)-pyrimidinedione] | – | 1700 ± 600 | 120 | – |
| Oc1cc(NCCCCc2ccccc2)nc(O)n1 [Compound 44, 6-(4-Phenylbutylamino)-2,4(1H,3H)-pyrimidinedione] | – | 24 ± 10 | 108 | – |

| Structure (SMILES) | percent receptor activation at 10 μM, cAMP assay (human GPR84 [1]) [%] | EC50 (human GPR84 [1]; EC50 ± SEM, cAMP assay) [nM] | Emax (human GPR84 [1]) [%] | other results |
| --- | --- | --- | --- | --- |
| Cc1ccc(CCNc2cc(=O)[nH]c(=O)[nH]2)cc1 [Compound 45, 6-(p-Methylphenylethylamino)-2,4(1H,3H)-pyrimidinedione] | – | 13 ± 1 | 114 | EC50 (human GPR84 [3]): 320 ± 150 nM |
| O=c1cc(NCCc2ccc(F)cc2)[nH]c(=O)[nH]1 [Compound 46, 6-(p-Fluorophenylethylamino)-2,4(1H,3H)-pyrimidinedione] | – | 65 ± 14 | 111 | EC50 (human GPR84 [3]): 2000 ± 800 nM |
| COc1ccc(CCNc2cc(=O)[nH]c(=O)[nH]2)cc1 [Compound 50, 6-(p-Methoxyphenylethylamino)-2,4(1H,3H)-pyrimidinedione] | – | 57 ± 21 | 111 | EC50 (human GPR84 [3]): 760 ± 370 nM |
| Cc1cccc(CCNc2cc(=O)[nH]c(=O)[nH]2)c1 [Compound 52, 6-(m-Methylphenylethylamino)-2,4(1H,3H)-pyrimidinedione] | – | 79 ± 25 | 134 | EC50 (human GPR84 [3]): 780 ± 220 nM |
| O=c1cc(NCCc2cccc(F)c2)[nH]c(=O)[nH]1 [Compound 53, 6-(m-Fluorophenylethylamino)-2,4(1H,3H)-pyrimidinedione] | – | – | 136 | – |
| O=c1cc(NCCc2cccc(Cl)c2)[nH]c(=O)[nH]1 [Compound 54, 6-(m-Chlorophenylethylamino)-2,4(1H,3H)-pyrimidinedione] | – | 130 ± 10 | 125 | EC50 (human GPR84 [3]): 300 ± 100 nM |
| O=c1cc(NCCc2cccc(Br)c2)[nH]c(=O)[nH]1 [Compound 55, 6-(m-Bromophenylethylamino)-2,4(1H,3H)-pyrimidinedione] | – | 64 ± 5 | 147 | EC50 (human GPR84 [3]): 190 ± 30 nM |
| Cc1ccccc1CCNc1cc(=O)[nH]c(=O)[nH]1 [Compound 56, 6-(o-Methylphenylethylamino)-2,4(1H,3H)-pyrimidinedione] | – | 3200 ± 100 | 96 | – |
| O=c1cc(NCCc2ccccc2Cl)[nH]c(=O)[nH]1 [Compound 58, 6-(o-Chlorophenylethylamino)-2,4(1H,3H)-pyrimidinedione] | – | 100 ± 20 | 122 | EC50 (human GPR84 [3]): 1300 ± 100 nM |
| O=c1cc(NCCc2ccccc2Br)[nH]c(=O)[nH]1 [Compound 59] | 19 | – | – | – |
| O=c1cc(NCCc2ccc(Cl)cc2Cl)[nH]c(=O)[nH]1 [Compound 61, 6-(o,p-Dichlorophenethylamino)-2,4(1H,3H)-pyrimidinedione] | – | 44 ± 4 | 113 | EC50 (human GPR84 [3]): 82 ± 35 nM |
| O=c1cc(NCCc2cccs2)[nH]c(=O)[nH]1 [Compound 63, 6-(Thiophen-2-yl)ethylamino-2,4(1H,3H)-pyrimidinedione] | – | – | 112 | – |
| O=c1cc(NCCOc2ccccc2)[nH]c(=O)[nH]1 [Compound 64, 6-(2-Phenoxyethylamino)-2,4(1H,3H)-pyrimidinedione] | – | 100 ± 50 | 113 | EC50 (human GPR84 [3]): 730 ± 130 nM |
| O=c1cc(NCCCOc2ccccc2)[nH]c(=O)[nH]1 [Compound 65, 6-(3-Phenoxypropylamino)-2,4(1H,3H)-pyrimidinedione] | – | 73 ± 5 | 107 | – |
| O=c1cc(N2CCC(c3ccccc3)CC2)[nH]c(=O)[nH]1 [Compound 66] | 13 | – | – | agonistic activity at GPR84 in cAMP assay, in words (human GPR84 [1]): inactive |
| O=c1cc(N2CCC(Cc3ccccc3)CC2)[nH]c(=O)[nH]1 [Compound 67, 6-(4-Benzylpiperidin-1yl)-2,4(1H,3H)-pyrimidinedione] | – | 130 ± 10 | 114 | EC50 (human GPR84 [3]): 600 ± 160 nM |
| O=c1cc(N2CCN(c3ccc(Cl)cc3)CC2)[nH]c(=O)[nH]1 [Compound 68, 6-[4-(p-Chlorophenyl)-1-piperazinyl]-2,4(1H,3H)-pyrimidinedione] | – | – | 117 | EC50 (human GPR84 [3]): 1800 ± 200 nM |
| COc1ccccc1N1CCN(c2cc(=O)[nH]c(=O)[nH]2)CC1 [Compound 69] | – | 38 ± 7 | 53 | – |
| O=c1cc(N2CCN(Cc3cccc4ccccc34)CC2)[nH]c(=O)[nH]1 [Compound 71, 6-[4-(1-Naphthylmethyl)-1-piperazinyl]-2,4(1H,3H)-pyrimidinedione] | – | 150 ± 40 | 137 | – |
| CCCCCCNc1[nH]c(=O)[nH]c(=O)c1Br [Compound 72] | – | 7400 ± 1600 | 123 | – |
| CCCCCCCCNc1[nH]c(=O)[nH]c(=O)c1Br [Compound 73, 5-Bromo-6-octylamino-2,4(1H,3H)-pyrimidinedione] | – | 2000 ± 600 | 114 | – |
| O=c1[nH]c(NCCc2ccc(Br)cc2)c(Br)c(=O)[nH]1 [Compound 74, 5-Bromo-6-(p-bromophenylethylamino)-2,4(1H,3H)-pyrimidinedione] | – | – | 114 | EC50 (human GPR84 [3]): 6700 ± 1800 nM |
| O=c1[nH]c(NCCCc2ccccc2)c(Br)c(=O)[nH]1 [Compound 75] | 15 | – | – | – |
| CCCCCCNc1[nH]c(=O)[nH]c(=O)c1N=O [Compound 76] | – | 7700 ± 500 | 120 | – |
| CCCCCCCNc1[nH]c(=O)[nH]c(=O)c1N=O [Compound 77, 6-Heptylamino-5-nitroso-2,4(1H,3H)-pyrimidinedione] | – | 500 ± 50 | 104 | – |
| O=Nc1c(NCCc2ccccc2)[nH]c(=O)[nH]c1=O [Compound 79] | 32 | – | – | – |
| COc1ccccc1N1CCN(CCCNc2cc(=O)n(C)c(=O)n2C)CC1 [urapidil, reference compound] | 7 | – | – | – |

From PMC6044507 (ACS Omega, 2018)
